Data taken from US8729097B2, “Quinoline compounds as inhibitors of angiogenesis, human methionine aminopeptidase, and SIRT1, and methods of treating disorders” (The Johns Hopkins University, priority 2008, dated 2014).
Where two headings read alike, the source gives them in different places. Each block holds one molecule with its values, some of them ahead of it.

Columns and labels:
[1] = biological target: T1, hMetAP2 (Homo sapiens, UniProt P50579); test: MetAP enzymatic assay, hMetAP2; format: biochemical
T1 construct: made in house
T1 sequence (P50579 whole entry): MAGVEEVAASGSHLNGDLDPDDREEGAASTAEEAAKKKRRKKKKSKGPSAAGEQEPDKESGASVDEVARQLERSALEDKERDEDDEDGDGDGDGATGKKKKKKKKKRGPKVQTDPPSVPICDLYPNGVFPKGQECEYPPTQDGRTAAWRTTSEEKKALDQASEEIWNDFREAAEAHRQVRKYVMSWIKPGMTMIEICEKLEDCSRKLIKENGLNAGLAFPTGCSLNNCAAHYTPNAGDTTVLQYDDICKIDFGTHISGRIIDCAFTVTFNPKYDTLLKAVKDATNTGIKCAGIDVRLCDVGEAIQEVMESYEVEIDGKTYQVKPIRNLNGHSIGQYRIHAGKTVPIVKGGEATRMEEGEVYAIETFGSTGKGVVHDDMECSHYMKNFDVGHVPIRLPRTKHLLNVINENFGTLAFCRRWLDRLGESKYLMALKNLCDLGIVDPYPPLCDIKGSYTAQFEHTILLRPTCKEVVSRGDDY

[2] = biological target: T2, hMetAP1 (Homo sapiens, UniProt P53582); test: MetAP enzymatic assay, hMetAP1; format: biochemical
T2 construct: made in house

[3] = tested on: HFF; test: HFF proliferation (selectivity); format: cell-based
[4] = tested on: HUVEC; test: HUVEC proliferation, [3H]-thymidine incorporation assay; format: cell-based, human
Protocol: (§1) HCC1954 cells were grown in RPMI1640 containing 10% FBS. HUVEC were grown using the EGM-2 bullet kit (Cambrex) as per manufacturer's instructions. The cells were maintained in a humidified incubator adjusted to 5% CO2. For drug screening, 10 mM stock solutions of Johns Hopkins Drug Library were arrayed in 96-well plates and screened at a final concentration of 10 μM. The cell growth was determined using a [^3H]-thymidine incorporation assay. Cells (typically 5,000 cells/well) were seeded in 96-well plates containing 0.2 ml of growth media and allowed to adhere for 24 h. The cells were then treated with drugs for 24 h. Cells were pulsed with 1 μCi [^3H]-thymidine (MP Biomedicals, 6.7 Ci mmol^−1) for 8 h and harvested, upon trypsin treatment, onto glass fiber filters (Wallac, Turku, Finland), from which ^3H counts were determined using a Perkin Elmer MicroBeta plate reader.

[5] = tested on: p53 and Rb pathways in HUVECs; test: Western blot of p53, p21 and Rb in HUVEC; format: cell-based, human
Protocol: (§2) Cells were lysed by adding 1 volume of 2× Laemmli buffer and were then boiled for 5 min. The samples were separated by SDS-PAGE and transferred to nitrocellulose membrane (Bio-Rad). Proteins were detected using primary antibodies for p53 (Santa Cruz), met-14-3-3γ (Novus), p21 (Santa Cruz), Rb (Santa Cruz), MetAP2 (Hu, X. et al (2006) Proc. Natl. Acad. Sci. U.S.A. 103, 18148-18153), SirT1 (Santa Cruz), acetyl-p53-K382 (Abeam), acetyl-tubulin (Sigma), histone-H3 (Santa Cruz), acetyl-H3 (Santa Cruz) and α-tubulin (TU-02, Santa Cruz) followed by the incubation with horseradish peroxidase (HRP)-conjugated anti-mouse or anti-rabbit antibodies (Santa Cruz) and enhanced chemiluminescence (ECL, Amersham).

[6] = tested on: HUVEC; test: Endothelial cell tube formation assay; format: cell-based, human; conditions: Matrigel; EX527 1 μM, TNP470 10 nM
Protocol: HUVEC were seeded on a 96-well plate (2×10^4 cells/well) coated with Matrigel. The cells were then incubated for 16˜18 h in a humidified 5% CO2 incubator at 37° C. The cells were washed carefully with PBS once and Calcein-AM solution in PBS was then added to a final concentration of 2 μM. After incubation for an additional 30 min, the cells were washed carefully with PBS and observed under a fluorescence microscope (485 nm excitation/520 nm emission). The tube formed was quantified using AngioQuant v1.33 (The MathWorks).

[7] = tested on: HUVEC; test: Senescence associated-β-galactosidase (SA-β-gal) staining in HUVEC; format: cell-based, human
Protocol: Cells in 6-well plates were washed with PBS and fixed with 3% paraformaldehyde. After washing with PBS, the cells were incubated for 24 h at 37° C. (without CO2, protected from light) in freshly prepared SA-β-gal staining solution containing 1 mg/ml 5-bromo-4-chloro-3-indolyl β-D-galactopyranoside (X-gal), 5 mM potassium ferrocyanide, 5 mM potassium ferricyanide, 150 mM NaCl, 2 mM MgCl2 and 40 mM citric acid, titrated with NaH2PO4 to pH 6.0. SA-β-gal solution was then removed and the cells were washed with PBS. The stained cells were observed under a microscope.

[8] = tested on: N-terminal methionine processing of 14-3-3γ by hMetAP2; test: N-terminal methionine processing of 14-3-3γ in HUVEC (Western blot); format: cell-based, human; conditions: 10 nM
Protocol: 14-3-3γ is known as a substrate of eukaryotic MetAPs and the inhibition of either isotype of MetAPs was reported to increase the N-terminal methionyl form of the protein.
Cells were lysed by adding 1 volume of 2× Laemmli buffer and were then boiled for 5 min. The samples were separated by SDS-PAGE and transferred to nitrocellulose membrane (Bio-Rad).

[9] = tested on: Saccharomyces cerevisiae strain BY4743; test: Yeast growth assay (wild type, map1Δ, map2Δ); format: cell-based; conditions: drug on paper disc
Excerpt: Saccharomyces cerevisiae strain BY4743 (MATa/α his3Δ1/his3Δ1 leu2Δ0/leu2Δ0 lys2Δ0/LYS2) and its isogenic haploid derivatives for MetAP1 (map1Δ) and MetAP2 (map2Δ) deletion mutants were used for yeast growth assays. Drugs dissolved in DMSO were spotted onto sterile filter disks and dried before experiments. Exponentially growing yeast strains were mixed with top agar and plated on YPD (1% yeast extract/2% peptone/2% glucose) plates. The filter disks were then placed on the YPD plates containing yeasts and the incubation was continued for 48 h at 30° C.

[10] = tested on: breast cancer cells as well as human umbilical vein endothelial cells (HUVECs); test: Cell proliferation assay, breast cancer cells and HUVECs; format: cell-based
Protocol: Cell proliferation assay was performed using several different kinds of breast cancer cells as well as human umbilical vein endothelial cells (HUVECs). […].
as §1

[11] = tested on: acetylation of p53 (K382), α-tubulin and histone-H3; test: Acetylation status of sirtuin substrates in HUVEC (Western blot); format: cell-based, human; conditions: HUVEC; for acetylation status of tubulin or histone-H3: 6 h or 20 h
Protocol: as §2

[12] = hMetAP2 Co^2+ IC50, Table 2, in the presence of Co^2+
[13] = read-out: hMetAP1 Co^2+ IC50, Table 2, in the presence of Co^2+
[14] = Homo sapiens, HUVEC, read-out: Selectivity HUVEC IC50
[15] = Table 2, in the presence of Co^2+, read-out: hMetAP2 Co^2+ IC50
[16] = Table 2, in the presence of Co^2+, read-out: hMetAP1 Co^2+ IC50
[17] = Table 2, in the presence of Mn^2+, read-out: hMetAP1 Mn^2+ IC50
[18] = Table 3, in the presence of Co^2+, read-out: hMetAP2 Co^2+ IC50
[19] = Table 3, in the presence of Mn^2+, read-out: hMetAP2 Mn^2+ IC50
[20] = Table 3, in the presence of Co^2+, read-out: hMetAP1 Co^2+ IC50
[21] = Table 3, in the presence of Mn^2+, read-out: hMetAP1 Mn^2+ IC50
[22] = Table 3, read-out: Selectivity HUVEC IC50
[23] = Homo sapiens, HUVEC, Table 4, read-out: HUVEC IC50
[24] = 72 h, valproic acid 0.1 mM, TNP-470 20 nM

- IC50 [1, 18]: > 50 µM
- IC50 [1, 19]: 0.9 µM
- IC50 [2, 20]: > 50 µM
- IC50 [2, 21]: > 50 µM
SMILES: O=C(Nc1cc(Cl)cc(Cl)c1)Oc1c(Cl)cc(Cl)c2cccnc12 [Entry 4b, 5,7-Dichloro-8-quinolyl-N-(3,5-dichlorophenyl)-carbamate]
- IC50 ([3]; Table 3): 3 µM
- IC50 [4, 22]: 0.11 µM

- IC50 [1, 18]: 2.2 µM
- IC50 [1, 19]: 0.07 µM
- IC50 [2, 20]: > 50 µM
- IC50 [2, 21]: 12.6 µM
SMILES: O=C(Nc1cc(Cl)cc(Cl)c1)Oc1ccc(Cl)c2cccnc12 [Entry 4c, 5-Chloro-8-quinolyl-N-(3,5-dichlorophenyl)-carbamate]
- IC50 ([3]; Table 3): 8 µM
- IC50 [4, 22]: 1.2 µM

- IC50 [1, 18]: > 50 µM
- IC50 [1, 19]: 1.6 µM
- IC50 [2, 20]: > 50 µM
- IC50 [2, 21]: > 50 µM
SMILES: O=C(Nc1ccccc1)Oc1c(Cl)cc(Cl)c2cccnc12 [Entry 4d, 5,7-Dichloro-8-quinolyl-N-phenylcarbamate]
- IC50 ([3]; Table 3): 15.3 µM

- IC50 [1, 18]: 1.9 µM
- IC50 [1, 19]: 0.03 µM
- IC50 [2, 20]: > 50 µM
- IC50 [2, 21]: 11.9 µM
SMILES: O=C(Nc1ccccc1)Oc1ccc(Cl)c2cccnc12 [Entry 4e, 5-Chloro-8-quinolyl-N-phenylcarbamate]
- IC50 ([3]; Table 3): 8.8 µM
- IC50 [4, 22]: 2.1 µM

- IC50 [1, 18]: > 50 µM
- IC50 [1, 19]: 3.1 µM
- IC50 [2, 20]: > 50 µM
- IC50 [2, 21]: > 50 µM
SMILES: O=C(Nc1ccc(F)cc1)Oc1c(Cl)cc(Cl)c2cccnc12 [Entry 4f, 5,7-Dichloro-8-quinolyl-N-(4-fluorophenyl)-carbamate]
- IC50 ([3]; Table 3): 37 µM

- IC50 [1, 18]: 45.7 µM
- IC50 [1, 19]: 1.8 µM
- IC50 [2, 20]: > 50 µM
- IC50 [2, 21]: > 50 µM
SMILES: O=C(Nc1cc(F)cc(F)c1)Oc1ccc(Cl)c2cccnc12 [Entry 4g, 5-Chloro-8-quinolyl-N-(3,5-difluorophenyl)-carbamate]
- IC50 ([3]; Table 3): 16.1 µM

Further lines, the molecule ahead of its results:

SMILES: Oc1cccc2cccnc12 [Entry 1a]
- IC50 [1, 12]: > 50 µM
- IC50 ([1]; hMetAP2 Mn^2+ IC50, Table 2, in the presence of Mn^2+): 2 µM
- IC50 [2, 13]: > 50 µM
- IC50 ([3]; Homo sapiens, HFF, Table 2): 6.6 µM
- IC50 [4, 14]: 6.2 µM

SMILES: O=S(=O)(O)c1ccc(O)c2ncccc12 [Entry 1d]
- IC50 [1, 12]: > 50 µM
- IC50 ([3]; Homo sapiens, HFF, Table 2): > 50 µM
- IC50 [4, 14]: > 50 µM

SMILES: OCCN(CCO)Cc1cc(Cl)c2cccnc2c1O [Entry 2a, 5-Chloro-7-(N,N-bis(2-hydroxyethyl)aminomethyl)-8-hydroxy-quinoline]
- IC50 [1, 15]: > 50 µM
- IC50 [2, 16]: > 50 µM
- IC50 [2, 17]: > 50 µM

SMILES: Oc1c(C(c2ccccc2)N2CCOCC2)cc(Cl)c2cccnc12 (stereo not shown) [Entry 2f, 5-Chloro-7-(1-phenyl-1-(N-morpholino)-methyl)-8-hydroxy-quinoline]
- melting point: 89 °C

SMILES: Oc1c(C(Nc2nccs2)c2ccco2)cc(Cl)c2cccnc12 (stereo not shown) [Entry 2g, 5-Chloro-7-(1-(2-furyl)-1-(2-thiazolylamino)-methyl)-8-hydroxy-quinoline]
- IC50 [1, 15]: > 50 µM
- IC50 ([1]; Table 2, in the presence of Mn^2+, read-out: hMetAP2 Mn^2+ IC50): 2.8 µM
- melting point: 126 °C
- IC50 [2, 16]: > 50 µM
- IC50 [2, 17]: > 50 µM
- IC50 ([3]; Homo sapiens, HFF, Table 2): 13.5 µM
- IC50 ([4]; Homo sapiens, HUVEC, Table 2, read-out: Selectivity HUVEC IC50): 2.5 µM

SMILES: C=CCOc1ccc(Cl)c2cccnc12 [Entry 3a, 8-Allyloxy-5-chloroquinoline]
- IC50 ([1]; read-out: hMetAP2 Co^2+ IC50, Table 2, in the presence of Co^2+): > 50 µM
- IC50 [2, 13]: > 50 µM

SMILES: O=C(NCCCl)Oc1ccc(Cl)c2cccnc12 [Entry 4h, 5-Chloro-8-quinolyl-N-(2-chloroethyl)-carbamate]
- IC50 ([3]; Table 3): 8.4 µM
- IC50 [4, 22]: 2.3 µM

SMILES: O=C(NCCCl)Oc1c(Cl)cc(Cl)c2cccnc12 [Entry 4i, 5,7-Dichloro-8-quinolyl-N-(2-chloroethyl)-carbamate]
- IC50 [2, 20]: > 50 µM
- IC50 [2, 21]: > 50 µM
- IC50 ([3]; Table 3): 11.1 µM
- IC50 [4, 22]: 2.4 µM

SMILES: Cc1ccc2c([N+](=O)[O-])cc([N+](=O)[O-])c(O)c2n1 [Entry 5b, 2-Methyl-5,7-dinitro-8-hydroxy-quinoline]
- IC50 [4, 23]: 17.3 µM

SMILES: CC(C)(C)OC(=O)Oc1ccc([N+](=O)[O-])c2cccnc12 [Entry 5c, 5-Nitro-8-tert-butoxycarbonyloxyquinoline]
- IC50 [4, 23]: 0.29 µM

SMILES: CCOC(=O)COc1ccc([N+](=O)[O-])c2cccnc12 [Entry 5d, Ethyl 1-(5-Nitro-quinolin-8-yloxy)-acetate]
- IC50 ([4]; Table 4, read-out: HUVEC IC50): 7.3 µM

SMILES: NC(=O)COc1ccc([N+](=O)[O-])c2cccnc12 [Entry 5e, 1-(5-Nitro-quinolin-8-yloxy)-acetamide]
- IC50 ([4]; Table 4, read-out: HUVEC IC50): 6.3 µM

SMILES: CO[C@@H]1[C@H](OC(=O)NC(=O)CCl)CC[C@]2(CO2)[C@H]1[C@@]1(C)O[C@@H]1CC=C(C)C [TNP-470]
- Rb hyperphosphorylation ([5]; 8% SDS-PAGE): inhibited its hyperphosphorylation
- total amount of Rb protein ([5]; 12% SDS-PAGE): increased the total amount of Rb protein
- HUVEC tube formation [6]: did not inhibit tube formation
- premature senescence in HUVEC [7, 24]: did not induce premature senescence
- premature senescence in HUVEC ([7]; 5 days, single compound or drug combination): did not
- processing of 14-3-3γ by hMetAP2 [8]: completely blocked
- growth of MetAP-1 deletion mutant (map1Δ) ([9]; map1Δ): significantly inhibited
- growth of MetAP-2 deletion mutant ([9]; map2Δ): did not affect the growth
- growth of wild-type yeast ([9]; wild type): did not inhibit the yeast growth
- endothelial selectivity over other types of cancer cell lines [10]: around 1,000 fold

SMILES: CC(/C=C/C(=O)NO)=C\[C@@H](C)C(=O)c1ccc(N(C)C)cc1 [TSA]
- acetylation status of tubulin or histone-H3 [11]: induced hyper-acetylation
- p53 acetylation ([11]; early time point): increased p53 acetylation

SMILES: CC(NC(=O)c1ccccc1/N=C/c1c(O)ccc2ccccc12)c1ccccc1 (stereo not shown) [sirtinol]
- acetylation status of tubulin or histone-H3 [11]: induced hyper-acetylation

SMILES: CCCC(CCC)C(=O)O [valproic acid]
- premature senescence in HUVEC [7, 24]: induced premature senescence
- reversibility of senescence ([7]; 72 h treatment, then fresh media for an additional 48 h): reversed their senescence state
